Where “and” joins values, the source holds several entries; their conditions need not be identical. Equal entries are not always repeated. Inconclusive results and toxic doses are left out. Rule for the calls: active = survival T/C of 150% or more; inactive = T/C below 125% in these data.
Test system: CD2F1 mice, L1210 leukemia ip, survival T/C
Test: NCI In Vivo Anticancer Drug Screen. Data for tumor model L1210 Leukemia (intraperitoneal) in CD2F1 (CDF1) mice
Details: higher = longer survival
In short: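 Read-out first: treated-group measurement over vehicle-control measurement, expressed as a ratio. Animals bore a transplanted tumor line and were dosed with compound or vehicle.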

[1] = endpoint: mean survival time, dose: 100.0 mg/kg/injection, schedule: Q01DX009 (ip), vehicle: saline with Tween-80
[2] = endpoint: mean survival time, dose: 200.0 mg/kg/injection, schedule: Q01DX009 (ip), vehicle: saline with Tween-80
[3] = endpoint: mean survival time, dose: 400.0 mg/kg/injection, schedule: Q01DX009 (ip), vehicle: saline with Tween-80
[4] = endpoint: mean survival time, dose: 100.0 mg/kg/injection, schedule: Q01DX001 (ip), vehicle: saline
[5] = endpoint: mean survival time, dose: 200.0 mg/kg/injection, schedule: Q01DX001 (ip), vehicle: saline
[6] = endpoint: mean survival time, dose: 12.5 mg/kg/injection, schedule: Q01DX009 (ip), vehicle: saline
[7] = endpoint: mean survival time, dose: 400.0 mg/kg/injection, schedule: Q01DX001 (ip), vehicle: saline
[8] = endpoint: mean survival time, dose: 100.0 mg/kg/injection, schedule: Q04DX003 (ip), vehicle: saline with Tween-80
[9] = endpoint: mean survival time, dose: 200.0 mg/kg/injection, schedule: Q04DX003 (ip), vehicle: saline with Tween-80
[10] = endpoint: mean survival time, dose: 400.0 mg/kg/injection, schedule: Q04DX003 (ip), vehicle: saline with Tween-80

Measured: T/C

O=C1SCCC1NP(=O)(Oc1ccccc1)Oc1ccccc1 (stereo unspecified)
inactive: [1] 93 % of control | [2] 103 % of control | [3] 93 % of control

COc1ccc(NC(=O)Nc2ccccc2C)c(OC)c1
inactive: endpoint: mean survival time, dose: 25.0 mg/kg/injection, schedule: Q04DX002 (ip), vehicle: saline with Tween-80 88 % of control | endpoint: mean survival time, dose: 50.0 mg/kg/injection, schedule: Q04DX002 (ip), vehicle: saline with Tween-80 88 % of control | endpoint: mean survival time, dose: 200.0 mg/kg/injection, schedule: Q04DX002 (ip), vehicle: saline with Tween-80 90 % of control | endpoint: mean survival time, dose: 400.0 mg/kg/injection, schedule: Q04DX002 (ip), vehicle: saline with Tween-80 90 % of control

CCCCCCCCN(C)N=Nc1ccc(C(N)=O)cc1
inactive: endpoint: mean survival time, dose: 79.0 mg/kg/injection, schedule: Q01DX009 (ip), vehicle: Klucel (hydroxypropylcellulose) (HPC) 104 % of control | endpoint: mean survival time, dose: 118.0 mg/kg/injection, schedule: Q01DX009 (ip), vehicle: Klucel (hydroxypropylcellulose) (HPC) 114 % of control | endpoint: mean survival time, dose: 175.0 mg/kg/injection, schedule: Q01DX009 (ip), vehicle: Klucel (hydroxypropylcellulose) (HPC) 117 % of control | endpoint: mean survival time, dose: 177.0 mg/kg/injection, schedule: Q01DX009 (ip), vehicle: Klucel (hydroxypropylcellulose) (HPC) 110 % of control | endpoint: mean survival time, dose: 266.0 mg/kg/injection, schedule: Q01DX009 (ip), vehicle: Klucel (hydroxypropylcellulose) (HPC) 122 % of control | endpoint: mean survival time, dose: 400.0 mg/kg/injection, schedule: Q01DX009 (ip), vehicle: Klucel (hydroxypropylcellulose) (HPC) 113 % of control and 118 % of control

Cn1c(=O)c2c(ncn2CN2CCN(Cn3cnc4c3c(=O)n(C)c(=O)n4C)CC2)n(C)c1=O
inactive: [4] 94 % of control | [5] 97 % of control

Nc1c(C(=O)O)cnn1CCO
inactive: endpoint: mean survival time, dose: 50.0 mg/kg/injection, schedule: Q04DX003 (ip), vehicle: water 94 % of control | endpoint: mean survival time, dose: 100.0 mg/kg/injection, schedule: Q04DX003 (ip), vehicle: water 100 % of control | endpoint: mean survival time, dose: 200.0 mg/kg/injection, schedule: Q04DX003 (ip), vehicle: water 100 % of control | endpoint: mean survival time, dose: 400.0 mg/kg/injection, schedule: Q04DX003 (ip), vehicle: water 97 % of control and 100 % of control | endpoint: mean survival time, dose: 700.0 mg/kg/injection, schedule: Q04DX003 (ip), vehicle: water 89 % of control

OCCN1CCN(CC/C=C2\c3ccccc3Sc3ccc(Cl)cc32)CC1
inactive: endpoint: mean survival time, dose: 3.12 mg/kg/injection, schedule: Q01DX009 (ip), vehicle: saline 102 % of control | endpoint: mean survival time, dose: 6.25 mg/kg/injection, schedule: Q01DX009 (ip), vehicle: saline 116 % of control | [6] 122 % of control

CCOC(=O)C(CCCl)C(=O)OCC
inactive: [4] 104 % of control | [5] 104 % of control | [7] 101 % of control

O=[N+]([O-])CS(=O)(=O)N1CCOCC1
inactive: [4] 103 % of control | [5] 106 % of control | [7] 110 % of control

O/N=C1/CCCc2ccccc21
inactive: [1] 98 % of control | [8] 100 % of control | [2] 101 % of control | [9] 97 % of control | [3] 104 % of control | [10] 100 % of control

CN(Cc1ccc(C(=O)NC(CCC(=O)O)C(=O)O)cc1)Cc1cnc2nc(N)nc(N)c2n1 (stereo unspecified)
inactive: endpoint: mean survival time, dose: 1.0 mg/kg/injection, schedule: Q01DX009 (ip), vehicle: water 96 % of control | endpoint: mean survival time, dose: 10.0 mg/kg/injection, schedule: Q01DX009 (ip), vehicle: water 114 % of control

CC(O)C1OC(n2cnc3c(=O)[nH]cnc32)C(O)C1O (stereo unspecified)
inactive: endpoint: mean survival time, dose: 12.5 mg/kg/injection, schedule: Q01DX005 (ip), vehicle: distilled water + Tween-80 114 % of control | endpoint: mean survival time, dose: 25.0 mg/kg/injection, schedule: Q01DX005 (ip), vehicle: distilled water + Tween-80 112 % of control | endpoint: mean survival time, dose: 50.0 mg/kg/injection, schedule: Q01DX005 (ip), vehicle: distilled water + Tween-80 104 % of control | endpoint: mean survival time, dose: 100.0 mg/kg/injection, schedule: Q01DX005 (ip), vehicle: distilled water + Tween-80 102 % of control | endpoint: mean survival time, dose: 200.0 mg/kg/injection, schedule: Q01DX005 (ip), vehicle: distilled water + Tween-80 100 % of control | endpoint: median survival time, dose: 8.75 mg/kg/injection, schedule: Q01DX005 (ip), vehicle: distilled water + Tween-80 108 % of control | endpoint: median survival time, dose: 12.5 mg/kg/injection, schedule: Q01DX005 (ip), vehicle: water 97 % of control | endpoint: median survival time, dose: 17.5 mg/kg/injection, schedule: Q01DX005 (ip), vehicle: distilled water + Tween-80 108 % of control | endpoint: median survival time, dose: 25.0 mg/kg/injection, schedule: Q01DX005 (ip), vehicle: saline with Tween-80 98 % of control | endpoint: median survival time, dose: 25.0 mg/kg/injection, schedule: Q01DX005 (ip), vehicle: water 97 % of control | endpoint: median survival time, dose: 35.0 mg/kg/injection, schedule: Q01DX005 (ip), vehicle: distilled water + Tween-80 102 % of control | endpoint: median survival time, dose: 50.0 mg/kg/injection, schedule: Q01DX005 (ip), vehicle: saline with Tween-80 107 % of control | endpoint: median survival time, dose: 50.0 mg/kg/injection, schedule: Q01DX005 (ip), vehicle: water 109 % of control | endpoint: median survival time, dose: 70.0 mg/kg/injection, schedule: Q01DX005 (ip), vehicle: distilled water + Tween-80 97 % of control | endpoint: median survival time, dose: 100.0 mg/kg/injection, schedule: Q01DX005 (ip), vehicle: saline with Tween-80 98 % of control | endpoint: median survival time, dose: 100.0 mg/kg/injection, schedule: Q01DX005 (ip), vehicle: water 98 % of control | endpoint: median survival time, dose: 140.0 mg/kg/injection, schedule: Q01DX005 (ip), vehicle: distilled water + Tween-80 97 % of control | endpoint: median survival time, dose: 200.0 mg/kg/injection, schedule: Q01DX005 (ip), vehicle: saline with Tween-80 109 % of control | endpoint: median survival time, dose: 200.0 mg/kg/injection, schedule: Q01DX005 (ip), vehicle: water 102 % of control | endpoint: median survival time, dose: 400.0 mg/kg/injection, schedule: Q01DX005 (ip), vehicle: saline with Tween-80 101 % of control

O=C(O)C(=CCc1cccc2ccccc12)C(=O)O
inactive: endpoint: mean survival time, dose: 100.0 mg/kg/injection, schedule: Q04DX003 (ip), vehicle: Klucel (hydroxypropylcellulose) (HPC) 101 % of control | endpoint: mean survival time, dose: 200.0 mg/kg/injection, schedule: Q04DX003 (ip), vehicle: Klucel (hydroxypropylcellulose) (HPC) 100 % of control | endpoint: mean survival time, dose: 400.0 mg/kg/injection, schedule: Q04DX003 (ip), vehicle: Klucel (hydroxypropylcellulose) (HPC) 103 % of control

O=C(N/N=C/c1ccc2c(c1)CCC2)c1ccc([N+](=O)[O-])cc1
inactive: [8] 95 % of control | [9] 89 % of control | [10] 98 % of control

CCCCCCCCC(O)CCC (stereo unspecified)
inactive: endpoint: mean survival time, dose: 100.0 mg/kg/injection, schedule: Q04DX003 (ip), vehicle: saline 96 % of control | endpoint: mean survival time, dose: 200.0 mg/kg/injection, schedule: Q04DX003 (ip), vehicle: saline 98 % of control | endpoint: mean survival time, dose: 400.0 mg/kg/injection, schedule: Q04DX003 (ip), vehicle: saline 100 % of control

Br/C1=C/CCCCCC1
inactive: endpoint: mean survival time, dose: 37.5 mg/kg/injection, schedule: Q01DX009 (ip), vehicle: saline 94 % of control | endpoint: mean survival time, dose: 75.0 mg/kg/injection, schedule: Q01DX009 (ip), vehicle: saline 94 % of control | endpoint: mean survival time, dose: 150.0 mg/kg/injection, schedule: Q01DX009 (ip), vehicle: saline 104 % of control

CN1NC(=O)C2CCCC1O2 (stereo unspecified)
inactive: [6] 106 % of control | endpoint: mean survival time, dose: 25.0 mg/kg/injection, schedule: Q01DX009 (ip), vehicle: saline 102 % of control | endpoint: mean survival time, dose: 50.0 mg/kg/injection, schedule: Q01DX009 (ip), vehicle: saline 105 % of control | endpoint: mean survival time, dose: 100.0 mg/kg/injection, schedule: Q01DX009 (ip), vehicle: saline 111 % of control

Cc1cc(F)ccc1[As](=O)(O)O
inactive: endpoint: mean survival time, dose: 6.25 mg/kg/injection, schedule: Q04DX003 (ip), vehicle: saline with Tween-80 103 % of control | endpoint: mean survival time, dose: 12.5 mg/kg/injection, schedule: Q04DX003 (ip), vehicle: saline with Tween-80 95 % of control | endpoint: mean survival time, dose: 25.0 mg/kg/injection, schedule: Q04DX003 (ip), vehicle: saline with Tween-80 97 % of control

From PubChem BioAssay AID256 (DTP/NCI, 2004)
